These results are taken from US8722744B2, “Galenical form for the administration of paracetamol by transmucous means” (priority 2006, dated 2014).

Series [1] in a line: Dissolution of paracetamol in hydroalcoholic solution. The settings on record: ethanol at 45%. The format is physicochemical. The protocol: The coefficient for dissolution of paracetamol in ethanol makes it possible to obtain a complete dissolution of said active ingredient at a level of 250 mg of paracetamol per 2 ml of ethanol at 45%. This coefficient can be modulated based on the degree of alcohol and the water/ethanol ratio that is used. By way of example, a 45% water/ethanol mixture at 50/50 by volume produces a better solubilization of paracetamol, compared to that obtained in pure ethanol.

The conditions of series [2]: administered dosage; cited from earlier work.

Turning to `CC(=O)Nc1ccc(O)cc1` [paracetamol], the “complete dissolution of the active ingredient” value in series [1] is reported as 250 mg per 2 ml. The “dosage above which toxic to the liver” value in series [2] is given as “higher than 4 g”.
